# Assay results taken from patent US10799521B2, “Use of icaritin in preparing medicament for preventing or treating hematocytopenia” (Lunan Pharmaceutical Group Corporation, priority 2013, dated 2020).
# Marks after values point to notes of the source that are not given here.
# Key:
# [1] = design: species or system Kunming mice; details: mouse, in vivo
# Procedure: Mice ascites tumor s180 cells were conventionally incubated in 1640 culture medium, at 37° C., 5% CO2, and passaged once every two days in average. The cells in the logarithmic growth phase were prepared into a single-cell suspension having a density of 3.0×10^7 cells/ml with normal saline, which was injected into the abdominal cavities of mice under sterile conditions. Seven days after inoculation, significant swelling of the abdominal cavities of mice can be seen. As this time, the mice were executed by cervical vertebra luxation, put into a beaker containing 75% ethanol and soaked for 2-3 minutes. The sterilized mice were placed into an ultraclean bench, and the abdomens were exposed. The ascites was drawn with a sterile syringe and put into a sterile reagent bottle for further use. The above ascites was counted with trypan blue, diluted with normal saline to adjust to 2.0×10^7 cells/ml, and inoculated at the right armpit of the mice with 0.2 ml for each mouse.
# The inoculated mice were randomly divided into 6 groups, with 10 animals in each group and half male and half female.
# Docetaxel and icaritin were administered by tail intravenous injection with an administration volume of 10 ml/kg for each. Tegafur, Gimeracil and Oteracil Potassium Capsules was intragastrically administered with an administration volume of 40 ml/kg. Each group was administered once a day for totally 10 days. During the test, the animals were observed every day for their food and water uptake, survival conditions and behaviors, and measured for their body weights every day. After the test was ended, the mice were anaesthetized and anatomized. Blood was collected from abdominal aorta for routine blood test, and the total number of white blood cells, the total number of platelets and the total number of neutrophils were determined.
# [2] = test system: NOD/Ltj mice; assay: Effect on the white blood cells and platelets in NOD mice; format: in vivo; details: 15 days
# Procedure: Non-obese diabetic (NOD) mice are a large mouse strains, including NOD/Scid, NOD/Ltj mice, etc. The NOD/Ltj mice used in this experiment are mice with an abnormal immune system in which platelets and white blood cells are obviously lower than those in normal mice.
# 5-Week-old healthy NOD mice, after adaptive feeding for one week, were randomly divided into 4 groups:
# Group I was the blank control group, totally 13 mice; and was administered intragastrically with normal saline in the same volume of interleukin daily;
# Group II was the positive control group, totally 13 mice, and was administered intragastrically with 10.0 mg/kg of interleukin daily;
# Group III was the low-dose icaritin group, totally 13 mice, and was administered intragastrically with 30 mg/kg of icaritin daily;
# Group IV was the high-dose icaritin group, totally 13 mice, and was administered intragastrically with 60 mg/kg of icaritin daily.
# Each group was administered once a day for consecutively 15 days. The mice were anaesthetized (with 3% pentobarbital sodium, by intraperitoneal injection, at 0.1-0.15 ml per animal). 1 ml of blood wass sampled from abdominal aorta into an anticoagulation tube for routine blood test.
# [3] = test system: normal mice; assay: Clotting time in normal mice (capillary method); format: in vivo, Kunming mice; design: unit not given here; details: 3 days, 1 h after last administration
# Procedure: 100 Kunming mice were randomly divided into 5 groups, i.e. the blank control group (normal saline group), the icariin group (positive control group), the high-dose icaritin group, the medium-dose icaritin group, and the low-dose icaritin group. Each group was administered as follows.
# Blank control group: administered with the same volume of normal saline by subcutaneous injection;
# Icariin group: administered with 2 mg/kg of icariin by injection;
# High-dose icaritin group: administered with the injection of icaritin of Example 1 by subcutaneous injection at a dosage of 10 mg/kg;
# Medium-dose icaritin group: administered with the injection of icaritin of Example 1 by subcutaneous injection at a dosage of 5 mg/kg;
# Low-dose icaritin group: administered with the injection of icaritin of Example 1 by subcutaneous injection at a dosage of 1 mg/kg.
# Measurement of the clotting time: The normal saline group (blank control group), the icariin group (positive control group), and the icaritin administration groups (high-, medium-, and low-dose groups) were designed as follows: 50 mice were selected, weighed and randomly divided into 5 groups, with 10 mice in each group. The animals were administered consecutively for 3 days. At 1 h after the last administration, blood was sampled from the venous plexus by inserting a disposable 20 μl blood collection tube into the inner canthus of the mouse to collect 20 μl of blood. A small fragment of capillary was broken off every 15 s for checking the occurrence of clotting filaments. The time from the blood sampling to the occurrence of fibrous protein filaments (clotting time) was recorded, and the results were shown in Table 5.
# [4] = test system: chronic ITP model rats; assay: Platelet count in chronic ITP model rats (anti-rat platelet serum); format: in vivo, Wistar rats
# Procedure: (§1) Establishment of chronic ITP model: Wistar rats were selected to establish the model by injecting rabbit anti-rat platelet serum (APS). […] 50 Rats in which the model was successfully established were selected, weighed, and randomly divided into 5 groups, i.e. the model control group, the icariin group (positive control group), and the icaritin administration groups (high-, medium- and low-dose groups), with 10 rats in each group. The groups were administered with the following therapeutic agents, respectively.
# The model control group: administered by subcutaneous injection with the same volume of normal saline;
# (§2) The icariin group: administered by subcutaneous injection with 2 mg/kg of icariin;
# (§3) The high-dose icaritin group: administered by subcutaneous injection with 10 mg/kg of the icaritin injection of Example 11;
# (§4) The medium-dose icaritin group: administered by subcutaneous injection with 5 mg/kg of the icaritin injection of Example 11;
# (§5) The low-dose icaritin group: administered by subcutaneous injection with 1 mg/kg of the icaritin injection of Example 11.
# At 1 h after the last administration, blood was sampled from the venous plexus by inserting a disposable 20 μl blood collection tube into the inner canthus of the […].
# [5] = test system: chronic ITP model rats; assay: Thrombin time, prothrombin time and partial thromboplastin time in chronic ITP model rats; format: in vivo, Wistar rats; details: high- and medium-dose groups, P<0.05
# Procedure: as §1
# [6] = test system: model of thrombocytopenia induced by cyclophosphamide in mice; assay: Thrombocytopenia induced by cyclophosphamide in mice (platelets in peripheral blood); format: in vivo, Balb/C mice; details: cyclophosphamide model mice, 3 weeks, x ± s
# Procedure: 72 Balb/C mice were selected, weighed, and randomly divided into 6 groups, i.e. the normal group, the model control group, the icariin group (positive control group), and the icaritin administration groups (high-, medium-, and low-dose groups), with 12 mice in each group. […] One week before starting to establish the model, each group was administered with the following therapeutic agents:
# The normal group: administered subcutaneously with the same volume of normal saline;
# The model control group: administered subcutaneously with the same volume of normal saline;
# as §2, §3, §4, §5
# Each group was administered once a day and fed normally. After consecutive administration for 3 weeks, the mice were anesthetized, and blood was sampled to measure the number of platelets and determine the effect of icaritin on the number of platelets (PLT) in the peripheral blood.
# [7] = high dose 60 mg/kg intragastrically daily
# [8] = low dose 30 mg/kg intragastrically daily
# [9] = low dose 1 mg/kg sc (injection of Example 11)
# [10] = medium dose 5 mg/kg sc (injection of Example 11)
smiles,measurement,setting,value
COc1ccc(-c2oc3c(CC=C(C)C)c(O)cc(O)c3c(=O)c2O)cc1 [Icaritin],Body weight Before Administration,[1],21.1 ± 3.0 g
same,Platelets,[2]; [7],780.2 ± 46.5 ^##$$ 10^9/L
same,White blood cells,[2]; [7],4.225 ± 0.51^##$ 10^9/L
same,Platelets,[2]; [8],730.5 ± 34.6^##$ 10^9/L
same,White blood cells,[2]; [8],3.242 ± 0.45 ^#$ 10^9/L
same,Clotting Time,[3]; high dose 10 mg/kg sc,1.96 ± 0.16**^ΔΔ
same,Clotting Time,[3]; low dose 1 mg/kg sc,3.84 ± 0.55
same,Clotting Time,[3]; medium dose 5 mg/kg sc,3.04 ± 0.31**^Δ
same,Platelet count,[4]; high dose 10 mg/kg sc (injection of Example 11),819.96 ± 61.8**^ΔΔ ×10^9
same,Platelet count,[4]; [9],680.84 ± 50.5 ×10^9
same,Platelet count,[4]; [10],720.4 ± 60.3**^Δ ×10^9
same,partial thromboplastin time (APTT),[5],significantly shorten
same,prothrombin time (PT),[5],significantly shorten
same,thrombin time (TT),[5],significantly shorten
same,PLT,[6]; [9],633.5 ± 43.2 10^9/L
same,PLT,[6]; [10],725.9 ± 66.7 10^9/L
